The source of these data is ChEMBL document CHEMBL1201862, “PubChem BioAssay data set” (2004).

SMILES strings stand for the structures. Activity calls are given as the source filed them. Rule as the data show it, for most assays here: actives have a measured EC50 and inactives only a lower limit.

The target of one experiment is T1, Corticotropin-releasing factor receptor 2/Corticotropin-releasing factor-binding protein (Homo sapiens, UniProt P24387+Q13324).
T1 sequence (Q13324 whole entry): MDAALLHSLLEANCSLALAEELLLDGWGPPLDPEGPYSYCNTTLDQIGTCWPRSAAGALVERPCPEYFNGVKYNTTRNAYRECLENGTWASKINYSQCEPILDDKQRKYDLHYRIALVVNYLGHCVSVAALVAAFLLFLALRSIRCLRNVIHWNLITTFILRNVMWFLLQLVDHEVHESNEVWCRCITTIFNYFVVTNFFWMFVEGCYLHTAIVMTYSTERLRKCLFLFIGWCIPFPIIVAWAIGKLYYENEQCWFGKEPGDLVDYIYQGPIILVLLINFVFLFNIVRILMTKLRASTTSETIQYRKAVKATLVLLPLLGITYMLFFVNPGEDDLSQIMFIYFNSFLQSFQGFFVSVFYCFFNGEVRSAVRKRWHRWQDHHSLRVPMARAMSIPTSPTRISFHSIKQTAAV
T1 sequence (P24387 whole entry): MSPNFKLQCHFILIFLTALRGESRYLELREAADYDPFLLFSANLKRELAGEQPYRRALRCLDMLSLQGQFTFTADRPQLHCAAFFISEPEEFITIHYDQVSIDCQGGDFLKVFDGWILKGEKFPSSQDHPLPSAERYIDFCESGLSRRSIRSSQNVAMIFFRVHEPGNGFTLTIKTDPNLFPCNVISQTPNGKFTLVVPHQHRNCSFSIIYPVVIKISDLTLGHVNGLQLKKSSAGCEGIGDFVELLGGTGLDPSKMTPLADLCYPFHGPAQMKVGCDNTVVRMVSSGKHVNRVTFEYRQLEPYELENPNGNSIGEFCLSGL
Nature of the experiment: activators of CRF receptor 2 with binding protein – uHTS hits, confirmation (AID 602473). In kind it is functional. The note with it: read-out: EC50_Mean.
As for `CCOP(=O)(OCC)C(Nc1cccc([N+](=O)[O-])c1)c1ccccc1` (stereo unspecified), the EC50 was > 53 µM (inactive). Regarding `Cc1c(-c2nc[nH]n2)sc(C#N)c1-c1ccccc1`, the EC50 was > 53 µM (inactive).

As to `N#Cc1c(N)n(-c2cccc(C(=O)O)c2)c2nc3ccccc3nc12`, the EC50 is 13.7 µM (active).

Another experiment addresses T2, Heat shock factor protein 1 (Mus musculus, UniProt P38532).
T2 sequence (P38532 whole entry): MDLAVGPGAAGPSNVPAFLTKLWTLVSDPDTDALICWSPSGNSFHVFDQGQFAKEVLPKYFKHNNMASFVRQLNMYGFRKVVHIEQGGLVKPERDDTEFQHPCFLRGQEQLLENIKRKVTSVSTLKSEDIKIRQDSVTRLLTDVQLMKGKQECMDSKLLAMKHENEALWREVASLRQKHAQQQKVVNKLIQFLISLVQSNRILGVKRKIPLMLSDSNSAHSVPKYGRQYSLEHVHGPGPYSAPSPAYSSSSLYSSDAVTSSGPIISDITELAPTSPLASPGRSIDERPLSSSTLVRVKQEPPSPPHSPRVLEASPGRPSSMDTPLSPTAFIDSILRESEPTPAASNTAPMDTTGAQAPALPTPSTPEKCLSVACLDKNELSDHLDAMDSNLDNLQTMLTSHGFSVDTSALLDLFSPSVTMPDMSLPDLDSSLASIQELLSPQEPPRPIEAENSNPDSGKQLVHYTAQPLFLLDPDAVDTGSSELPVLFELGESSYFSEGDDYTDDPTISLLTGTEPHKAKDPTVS
Nature of the experiment: inhibition of MG132-induced HSE-luciferase signal, confirmation, cell-based, NIH3T3, luminescence, dose retest (AID 2382).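 Also: NIH3T3 fibroblasts with HSF1-driven luciferase reporter stressed by proteasome inhibitor MG132; luminescence from HSF1-driven luciferase expression after 8 hours of MG132 stress.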 The experiment is classed as functional.
Conditions: not given
Regarding `COc1ccc(CN(CCCN2CCOCC2)C(=O)Nc2cccc(Cl)c2)cc1OC`, the EC50 is on record as > 195 µM (not active). Take `CC1=Nc2ccc(C)c3nc(C)cc(c23)N1c1ccc(C)cc1`: the EC50 is on record as > 195 µM (not active). With `CC(N1CCOC1=O)S(=O)(=O)c1ccccc1` (stereo unspecified), the EC50 was > 195 µM (not active).

In the case of `CCN(CC)S(=O)(=O)c1cccc(NC(=O)CCNC(=O)NC23CC4CC(CC(C4)C2)C3)c1`, the EC50 is on record as > 195 µM (not active). In the case of `CCOC(=O)Nc1ccccc1C(=O)Nc1cc(C)cc(C)c1`, the EC50 is reported as > 195 µM (not active). Regarding `COc1ccc(N(C)C(=O)CN(C)S(=O)(=O)c2ccc3c(c2)c(=O)n(C)c(=O)n3C)c(OC)c1`, the EC50 is 120 µM (active). Consider `CCN(CC(=O)N1CCCC1)S(=O)(=O)c1ccc(F)cc1`, for which the EC50 was > 195 µM (not active). Turning to `Cc1[nH]c2ccccc2c1C(C[N+](=O)[O-])c1cccs1` (stereo unspecified), the EC50 is on record as > 195 µM (not active). Take `CCCCN1C(=O)C(CC(=O)NCC)S/C1=N/c1ccccc1` (stereo unspecified): the EC50 is listed as > 195 µM (not active).

In the next experiment the target is T1, Corticotropin-releasing factor receptor 2/Corticotropin-releasing factor-binding protein. Nature of the experiment: Dose Response confirmation of uHTS hits for small molecule antagonists of the CRF-binding protein and CRF-R2 receptor complex. The experiment is classed as functional. The note with it: read-out: IC50_Mean.
As to `CCOP(=O)(OCC)C(Nc1cccc([N+](=O)[O-])c1)c1ccccc1` (stereo unspecified), the IC50 is > 47.1 µM (inactive). Take `Cc1c(-c2nc[nH]n2)sc(C#N)c1-c1ccccc1`: the IC50 is > 47.1 µM (inactive). As to `N#Cc1c(N)n(-c2cccc(C(=O)O)c2)c2nc3ccccc3nc12`, the IC50 was > 47.1 µM (inactive).

A further experiment deals with T3, Zinc finger protein mex-5 (Caenorhabditis elegans, UniProt Q9XUB2).
T3 sequence (Q9XUB2 whole entry): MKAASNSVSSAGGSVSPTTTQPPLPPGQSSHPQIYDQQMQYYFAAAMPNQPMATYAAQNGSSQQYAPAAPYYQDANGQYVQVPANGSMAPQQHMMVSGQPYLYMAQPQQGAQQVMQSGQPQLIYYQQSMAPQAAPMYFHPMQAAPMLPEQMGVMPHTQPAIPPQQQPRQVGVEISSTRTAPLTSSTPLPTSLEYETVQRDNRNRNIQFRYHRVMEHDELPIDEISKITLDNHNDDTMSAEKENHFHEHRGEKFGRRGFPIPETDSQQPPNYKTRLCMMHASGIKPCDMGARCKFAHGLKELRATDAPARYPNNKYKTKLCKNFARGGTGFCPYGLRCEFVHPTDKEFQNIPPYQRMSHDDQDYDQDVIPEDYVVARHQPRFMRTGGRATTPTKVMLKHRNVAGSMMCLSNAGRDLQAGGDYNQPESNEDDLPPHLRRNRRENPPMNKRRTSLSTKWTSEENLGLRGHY
Nature of the experiment: MEX-5/TCR-2 RNA interaction inhibitors, dose response, biochemical, C. elegans, fluorescence polarization (AID 1960).
Conditions: not given
On to `COC(=O)CCCC1=CC2=CC(=O)C(C)(OC(=O)C3CCCC3)C(=O)C2=CO1` (stereo unspecified), for which the EC50 is 57.7 µM (inconclusive). For the molecule `CC1=C(C#N)C(=O)N(C)C(=O)/C1=C\NNc1ccc(F)cc1`, the EC50 is listed as > 300 µM (not active). With `CCOP(=O)(OCC)C(Nc1cccc([N+](=O)[O-])c1)c1ccccc1` (stereo unspecified), the EC50 is on record as > 300 µM (not active). Consider `COC(=O)CNc1cccc(C(F)(F)F)c1`, for which the EC50 is recorded as > 300 µM (not active). Regarding `N#Cc1c(N)n(-c2cccc(C(=O)O)c2)c2nc3ccccc3nc12`, the EC50 is on record as > 300 µM (not active). Consider `CC(=O)c1c(O)cc(O)cc1CC(=O)O`, for which the EC50 was 190 µM (inconclusive). On to `COc1ccc(/C(C)=N/Nc2nc3ccccc3nc2C)cc1OC`, for which the EC50 was 66.5 µM (inconclusive).

Test system in another experiment: not listed separately
Description: HEp-2 cell cytotoxicity, dose response, cytotoxicity control for RSV inhibitor project, HTS (AID 2410). The experiment is classed as functional. The note with it: human respiratory syncytial virus.
Consider `O=C1N=C(Nc2cccc(O)c2)S/C1=C\c1cccc([N+](=O)[O-])c1`, for which the CC50 was > 50 µM (active). Consider `Cc1n[nH]c(-c2ccc(OCc3cnn(-c4ccccc4)c3)c(C)c2O)c1Oc1ccccc1`, for which the CC50 was 14.6 µM (active).

For the molecule `Cc1c(OCC(=O)NCC(O)c2ccccc2)ccc2c3c(c(=O)oc12)CCCC3` (stereo unspecified), the CC50 was 48.5 µM (active).

On to `CCc1ccc(C2=NNC(=Nc3c(C)n(C)n(-c4ccccc4)c3=O)SC2)cc1`, for which the CC50 was 20.1 µM (active). As to `CC1=Nc2ccc(C)c3nc(C)cc(c23)N1c1ccc(C)cc1`, the 50% cytotoxic concentration (CC50) is > 50 µM (active). Take `N#Cc1ccc(CN2CCN(CC(=O)NCCc3ccc(Cl)cc3Cl)CC2)cc1`: the CC50 is 22.9 µM (active). As for `CC(Oc1ccc(Cl)cc1Cl)C(=O)Nc1cccc(O)c1` (stereo unspecified), the CC50 is 27.2 µM (active). For `CSc1cccc(NC(=O)N2CCc3ccc(NC(=O)c4ccccn4)cc3C2)c1`, the CC50 is 14.4 µM (active). As to `Cc1c(-c2nc[nH]n2)sc(C#N)c1-c1ccccc1`, the CC50 is 24.4 µM (active). For `Cc1ccccc1OCCNC(=O)c1ccc2ccccc2n1`, the CC50 is 24.5 µM (active). For the molecule `CC1(C)C(=O)NCCN1C(=O)CSc1nccc(-c2ccc(Br)cc2)n1`, the CC50 is 34.1 µM (active). Regarding `CSc1ccc(/C=N/n2nnnc2N)cc1`, the CC50 was 48.5 µM (active).

A further experiment has as its target T4, RNA-binding protein pos-1 (Caenorhabditis elegans, UniProt G5EF15).
T4 sequence (G5EF15 whole entry): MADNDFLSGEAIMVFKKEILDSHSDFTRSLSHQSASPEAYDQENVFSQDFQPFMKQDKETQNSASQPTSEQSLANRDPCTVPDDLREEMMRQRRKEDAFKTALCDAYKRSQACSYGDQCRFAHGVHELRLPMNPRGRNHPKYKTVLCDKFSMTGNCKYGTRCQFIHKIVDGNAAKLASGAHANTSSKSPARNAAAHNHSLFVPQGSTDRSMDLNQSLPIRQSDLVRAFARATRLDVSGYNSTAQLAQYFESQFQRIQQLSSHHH
Description: inhibitors of POS-1/mex-3 RNA binding, dose response, biochemical, fluorescence polarization (AID 1964).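 Also: purified POS-1 fused to maltose binding protein made in E. coli; potency of compounds blocking POS-1 binding to fluorescent RNA.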
Conditions: not given
Background: In fluorescence polarisation assays a small probe gives low polarisation when free and higher when bound to something large.
For `COC(=O)CCCC1=CC2=CC(=O)C(C)(OC(=O)C3CCCC3)C(=O)C2=CO1` (stereo unspecified), the EC50 was 23.3 µM (active). On to `CC1=C(C#N)C(=O)N(C)C(=O)/C1=C\NNc1ccc(F)cc1`, for which the EC50 is listed as > 300 µM (not active). With `CCOP(=O)(OCC)C(Nc1cccc([N+](=O)[O-])c1)c1ccccc1` (stereo unspecified), the EC50 is > 300 µM (not active).

For the molecule `COC(=O)CNc1cccc(C(F)(F)F)c1`, the EC50 is recorded as > 300 µM (not active). In the case of `N#Cc1c(N)n(-c2cccc(C(=O)O)c2)c2nc3ccccc3nc12`, the EC50 is listed as > 300 µM (not active). In the case of `CC(=O)c1c(O)cc(O)cc1CC(=O)O`, the EC50 was > 300 µM (inconclusive). `COc1ccc(/C(C)=N/Nc2nc3ccccc3nc2C)cc1OC`: the EC50 is 5.07 µM (inconclusive).

A word on the CC50: it is the concentration that lowers cell viability or growth by half.
